Measurements as given in US20230293711A1, “DISRUPTION OF CD28-SIALOSIDE LIGAND COMPLEXES TO ENHANCE T CELL ACTIVATION” (THE SCRIPPS RESEARCH INSTITUTE, priority 2020, published 2023).

Key:
OT-II cells [1] = assay: APC-free expansion of OT-II cells with anti-CD3 and recombinant CD80 in the presence of soluble glycan; format: cell-based; details: soluble glycan 500 μM; anti-CD3 and recombinant CD80-Fc
Experimental: FIG. 7. APC-free expansion of OT-II cells in the presence of soluble glycan (500 μM). (A) Experimental setup. T cells were activated using anti-CD3 (αCD3) and recombinant CD80 (rCD80). (B) OT-II cell proliferation histograms. (C) Quantification of data from (B).
Since recombinant CD80 binding to CD28 was the sole source of co-stimulation for T cells in this experiment, we conclude that sialic acid ligands of CD28 functionally suppress CD28 mediated co-stimulation.

human CD28 = human CD28 (Homo sapiens, UniProt P10747); assay: Steady state SPR of soluble glycan binding to surface immobilized CD28
Chain of human CD28 (P10747 19-220): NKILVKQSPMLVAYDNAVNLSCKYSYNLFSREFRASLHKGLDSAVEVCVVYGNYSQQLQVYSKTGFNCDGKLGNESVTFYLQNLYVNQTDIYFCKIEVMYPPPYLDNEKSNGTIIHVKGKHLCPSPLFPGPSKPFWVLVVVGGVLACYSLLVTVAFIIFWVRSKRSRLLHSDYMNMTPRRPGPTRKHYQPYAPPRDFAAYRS
Description: FIG. 5. Biophysical characterization of a CD28-sialoside interaction. Steady state SPR data for α2,3-Sialyl-triLacNAc and triLacNAc binding to surface immobilized human CD28.
As an orthogonal test for sialoside binding and to assess the affinity of a sialoside ligand, we tested the ability of surface-immobilized CD28 to bind to a soluble sialylated glycan using SPR.

mouse PD-1 (mPD1) = biological target: T1, mouse PD-1 (mPD1) (Mus musculus, UniProt Q02242); assay: Binding of expressed anti-PD-1 monoclonal antibodies and conjugate to mouse PD-1 (ELISA); details: anti-hPD1 clones
T1 sequence (Q02242 25-288): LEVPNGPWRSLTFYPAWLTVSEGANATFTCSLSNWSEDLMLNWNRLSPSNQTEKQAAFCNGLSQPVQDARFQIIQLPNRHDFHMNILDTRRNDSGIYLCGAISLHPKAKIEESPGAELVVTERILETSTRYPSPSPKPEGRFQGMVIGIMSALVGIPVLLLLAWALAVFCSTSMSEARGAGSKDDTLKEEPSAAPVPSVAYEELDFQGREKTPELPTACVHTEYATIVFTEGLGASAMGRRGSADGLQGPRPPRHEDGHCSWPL
Description: FIG. 11. Three expressed anti PD-1 monoclonal antibodies targeted respectively to either human PD-1 (hPD1) and mouse PD-1 (mPD1) bind with high specificity and affinity.
(§1) We investigated the possibility of using non-specific small-molecule linkers to install multiple reactive sites on three expressed αPD1 monoclonal antibodies. […] Through an inverse Electron Demand Diels Alder (iEDDA) reaction, two molecules conjugated respectively with tetrazine and TCO moieties can react rapidly and covalently under ambient conditions. Utilizing the methodology and reagents shown in the reaction scheme in FIG. 12A, we incubated αPD1 antibody clones with NHS-tetrazine 1, allowing non-selective labeling of solvent-exposed lysine residue side-chains (FIG. 12A). Simultaneously, we modified an expressed sialidase from Salmonella typhimurium (ST) containing a C-terminal cysteine though incubation with a 40-fold molar excess of TCO-maleimide 2, leading to near-complete selective modification of the free thiol group (FIG. 12A). To optimize conjugation yield, leading to maximum utilization of antibody starting material while also producing defined products with small numbers of ST per antibody, we titrated the molar ratio of NHS-tetrazine used to load the antibody with reactive groups in step one of the conjugation reaction (FIG. 12B). […]

[2] = Sialidase activity of purified αPD1-S against MUNANA; format: biochemical; details: 1 activity unit=1 μmol min-1; purified single- and double-modified αPD1-S
Experimental: as §1

[3] = test system: OT-I cells (CD8^+ T cells); assay: OT-I proliferation (CTV dilution) in co-culture with OVA-loaded DCs with or without sialidase
OT-II cells [4] = assay: Adoptive transfer of ex vivo desialylated CTV-stained OT-II cells into OVA experienced host mice; format: in vivo; details: cells treated ex vivo 45 min at 37° C.; OVA sensitized mice; vs normally sialylated control
Experimental: FIG. 8. Desialylated T cells are more readily activated in vivo. (A) WT mice were injected with OVA on day 1. On day 2, OT-II cells were treated with sialidase or PBS ex vivo for 45 min. at 37° C. and subsequently stained with CTV. These cells were then adoptively transferred into OVA experienced host mice (or naïve mice as a control). On day 5, spleens from host mice were analyzed for adoptively transferred OT-II cells and CTV dilution was evaluated. […] (C) Quantification of data from (B). […] Normalized division index corresponds to T cell division index for sialidase-treated cultures divided by the division index for the corresponding PBS treated control.
To investigate the translatability of these findings to an in vivo system, we adoptively transferred CTV-stained OT-II cells that were desialylated ex vivo into a WT host mouse. We observed that desialylated OT-II cells expanded more efficiently in vivo as compared to a normally sialylated control (FIG. 8).

DCs (expressing CD80) = assay: Binding of recombinant CD28-Fc to sialidase-treated DCs (flow cytometry); format: cell-based, mouse
[5] = test system: Polyclonal CD8^+ T cells exhausted via chronic LCMV infection; format: cell-based, mice
[6] = test system: T cells (CD4^+ and CD8^+) from murine spleen (expressing CD28); assay: Binding of recombinant CD80-Fc to sialidase-treated T cells (flow cytometry); format: cell-based
exhausted P14 cells = format: cell-based, mouse
[7] = test system: OT-II cells (CD4^+ T cells); assay: OT-II proliferation (CTV dilution) in co-culture with OVA-loaded DCs with or without sialidase
[8] = biological target: chimeric PD-1 fused to green fluorescent protein, expressed on Jurkat T cells; assay: cell-based or functional assay
mouse PD-1 (mouse) = mouse PD-1 (mouse) (UniProt Q02242); assay: ELISA (FIG. 11)
human PD-1 = biological target: T2, human PD-1 (human, UniProt Q15116 25-167, limits assumed); assay: ELISA (FIG. 11)
T2 construct: also called hPD1
T2 sequence (Q15116 25-167 limits assumed): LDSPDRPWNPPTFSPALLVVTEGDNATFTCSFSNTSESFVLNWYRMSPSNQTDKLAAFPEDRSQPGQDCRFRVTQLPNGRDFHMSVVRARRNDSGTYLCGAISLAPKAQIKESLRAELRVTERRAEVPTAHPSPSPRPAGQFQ

[9] = biological target: T3, CD80 on murine dendritic cells (mouse, UniProt Q00609 38-306); assay: flow cytometry on DCs with or without sialidase
T3 construct: whole, on cells; DCs (expressing CD80), untreated or treated with V. cholerae sialidase; also called B7-1
T3 sequence: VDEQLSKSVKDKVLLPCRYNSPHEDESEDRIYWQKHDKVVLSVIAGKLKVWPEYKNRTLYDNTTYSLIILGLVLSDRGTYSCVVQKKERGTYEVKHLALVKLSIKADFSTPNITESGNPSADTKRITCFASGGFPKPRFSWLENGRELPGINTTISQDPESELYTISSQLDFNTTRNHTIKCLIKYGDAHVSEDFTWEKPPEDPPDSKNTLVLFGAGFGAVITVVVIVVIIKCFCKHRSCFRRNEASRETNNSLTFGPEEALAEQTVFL

[10] = OVA-loaded bone marrow derived DCs, 3 days, vs PBS
[11] = bulk OVA-loaded splenocytes, DCs differentiated using Flt3L

**Q.** Which T cell proliferation (OT-II cells [1]) does the source give for “NeuAcα2-3Galβ1-4(Fucα1-3)GlcNAc [sialylated-Lewis X]” here?
**A.** significant reduction

**Q.** Which Kd (human CD28) does the source give for “α2,3-Sialyl-triLacNAc [soluble sialylated glycan]” here?
**A.** 112 µM

**Q.** Which “affinity for mPD1” value (mouse PD-1 (mPD1)) does the source give for Pembrolizumab [409A11] here?
**A.** no affinity

**Q.** What about the “sialidase activity against MUNANA” value [2] of the same molecule?
**A.** 26 U mL-1

**Q.** Which “enhancement of CD8^+ T cell proliferation” value [3, 10] does the source give for “sialidase: free sialidase; from V. cholerae in FIG. 2 and 6, source not stated for the other experiments” here?
**A.** 2-3 fold

**Q.** And the “OT-I cell activation with alternative APC sources” value [3, 11]?
**A.** enhancement

**Q.** And the “proliferation of adoptively transferred OT-II cells in vivo” value (OT-II cells [4])?
**A.** enhanced proliferation

**Q.** What about the “binding of recombinant CD28-Fc to desialylated DCs compared to untreated controls” value (DCs (expressing CD80)) of the same molecule?
**A.** significant enhancement

**Q.** And the “T cell activation (percentage of cells expressing IFN-γ and granzyme B) over peptide alone” value [5]?
**A.** enhanced

**Q.** And the “expression of LAMP-1 over peptide alone” value [5]?
**A.** enhanced

**Q.** What about the “binding of recombinant CD80-Fc to desialylated T cells compared to untreated controls” value [6] of the same molecule?
**A.** significant enhancement

**Q.** What about the “cytokine production (IFN-γ/TNF-α)” value (exhausted P14 cells) of the same molecule?
**A.** enhanced

**Q.** And the “enhancement of CD4^+ T cell proliferation” value [7, 10]?
**A.** 2-3 fold

**Q.** And the “OT-II cell activation with alternative APC sources” value [7, 11]?
**A.** enhancement

**Q.** Which desialylation of Jurkat-PD1-GFP against Jurkat T cells (lectin staining SNA, PNA, MAA-II, flow cytometry) [8] does the source give for “αhPD1-S (409A11), conjugate of anti-human PD-1 clone 409A11 and Salmonella typhimurium sialidase (from UniProt P29768 2-382)” here?
**A.** > 100 fold

**Q.** And the fold decrease in level of αPD1-S needed for similar desialylation of Jurkat-PD1-GFP against native Jurkat cells [8]?
**A.** 100 to 1000 fold

B1: anti-mouse PD-1 monoclonal antibody clone J43 (antibody, from another filing, V domains shown)
VH: EVRLLESGGGLVKPEGSLKLSCVASGFTFSDYFMSWVRQAPGKGLEWVAHIYTKSYNYATYYSGSVKGRFTISRDDSRSMVYLQMNNLRTEDTATYYCTRDGSGYPSLDFWGQGTQVTVSS
VL: YELTQPPSASVNVGETVKITCSGDQLPKYFADWFHQRSDQTILQVIYDDNKRPSGIPERISGSSSGTTATLTIRDVRAEDEGDYYCFSGYVDSDSKLYVFGSGTQLTVLG
**Q.** With B1 as the molecule, how does the EC50 (mouse PD-1 (mouse)) read?
**A.** 0.39 µg/mL

B2: anti-human PD-1 monoclonal antibody clone 1H3 (antibody, V domains shown)
VH: EVQLVESGGGLVKPGGSLKLSCAASGFTFSDYGMHWVRQAPEKGLEWVAYISSGSYTIYYTDTVKGRFTISRDNAKNTLFLQMTSLRSEDTAMYYCARRGYGSFYEYYFDYWGQGTTLTVSS
VL: QIVLTQSPALMSASPGEKVTMTCSASSSVSYMYWYQQKPRSSPKPWIYLTSNLASGVPARFSGSGSGTSYSLTISSMEAEDAATYYCQQWSSNPFTFGSGTKLEIK
**Q.** For B2, which EC50 (human PD-1) is on record?
**A.** 0.16 µg/mL

B3: recombinant chimeric mouse CD28 fused to human Fc (Fc fusion, UniProt P31041 20-150, looked up)
chain: NKILVKQSPLLVVDSNEVSLSCRYSYNLLAKEFRASLYKGVNSDVEVCVGNGNFTYQPQFRSNAEFNCDGDFDNETVTFRLWNLHVNHTDIYFCKIEFMYPPPYLDNERSNGTIIHIKEKHLCHTQSSPKL
notes: Commercial Fc chimera; also called CD28-Fc; not shown: human Fc
**Q.** Does B3 bind [9]?
**A.** binds
